Here are results for 20 compounds from US9796711B2, “Substituted pyrazolo[3,4-b]pyridin-6-carboxylic acids and method of use” (AbbVie S.àr.l., priority 2015, dated 2017).

Test [1] addresses T1, ΔF508-CFTR (Homo sapiens, UniProt P13569, DEL508-508).
T1 construct: host or cells: CFBE41o-, doxycycline-inducible
Kind of test: CFTR cell surface levels using HRP-tagged ΔF508-CFTR expressing CFBE cells, intrinsic corrector capacity. Format: cell-based. Conditions: for EC50: read-out: EC50. In outline: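 Here the cells express ΔF508-CFTR with horseradish peroxidase inserted in extracellular loop 4, so only rescued channel at the surface gives luminescent signal. Compounds act on their own, 20 h at the reduced temperature of 33 °C; values are percent activity relative to DMSO and a 3 μM corrector.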

The target of test [2] is T1, ΔF508-CFTR. Kind of test: CFTR cell surface levels using HRP-tagged ΔF508-CFTR expressing CFBE cells, in the presence of a co-corrector. Format: cell-based. To be noted: HRP-tagged ΔF508-CFTR expressing CFBE cells, in the presence of 3 μM co-corrector; for EC50: read-out: EC50. In a few lines:
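Cells were seeded with 0.5 μg/mL doxycycline and held 68 h at 37 °C. Test compounds plus 3 μM co-corrector (final 0.1% DMSO) were then added for 20 h at 33 °C. Washed cells received HRP substrate, and luminescence was normalized between DMSO and 3 μM co-corrector controls.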

Setting [3] is: HRP-tagged ΔF508-CFTR CFBE41o- cells, compounds alone (intrinsic corrector capacity), 20 hours at 33° C., positive control 3 μM corrector.
[4] abbreviates: HRP-tagged ΔF508-CFTR CFBE41o- cells, compounds alone (intrinsic corrector capacity), 20 hours at 33° C.
[5] abbreviates: HRP-tagged ΔF508-CFTR expressing CFBE cells, intrinsic corrector capacity (no co-corrector), 33° C., 20 hours.

T1 sequence (P13569 with tags, fused parts or gaps DEL508-508): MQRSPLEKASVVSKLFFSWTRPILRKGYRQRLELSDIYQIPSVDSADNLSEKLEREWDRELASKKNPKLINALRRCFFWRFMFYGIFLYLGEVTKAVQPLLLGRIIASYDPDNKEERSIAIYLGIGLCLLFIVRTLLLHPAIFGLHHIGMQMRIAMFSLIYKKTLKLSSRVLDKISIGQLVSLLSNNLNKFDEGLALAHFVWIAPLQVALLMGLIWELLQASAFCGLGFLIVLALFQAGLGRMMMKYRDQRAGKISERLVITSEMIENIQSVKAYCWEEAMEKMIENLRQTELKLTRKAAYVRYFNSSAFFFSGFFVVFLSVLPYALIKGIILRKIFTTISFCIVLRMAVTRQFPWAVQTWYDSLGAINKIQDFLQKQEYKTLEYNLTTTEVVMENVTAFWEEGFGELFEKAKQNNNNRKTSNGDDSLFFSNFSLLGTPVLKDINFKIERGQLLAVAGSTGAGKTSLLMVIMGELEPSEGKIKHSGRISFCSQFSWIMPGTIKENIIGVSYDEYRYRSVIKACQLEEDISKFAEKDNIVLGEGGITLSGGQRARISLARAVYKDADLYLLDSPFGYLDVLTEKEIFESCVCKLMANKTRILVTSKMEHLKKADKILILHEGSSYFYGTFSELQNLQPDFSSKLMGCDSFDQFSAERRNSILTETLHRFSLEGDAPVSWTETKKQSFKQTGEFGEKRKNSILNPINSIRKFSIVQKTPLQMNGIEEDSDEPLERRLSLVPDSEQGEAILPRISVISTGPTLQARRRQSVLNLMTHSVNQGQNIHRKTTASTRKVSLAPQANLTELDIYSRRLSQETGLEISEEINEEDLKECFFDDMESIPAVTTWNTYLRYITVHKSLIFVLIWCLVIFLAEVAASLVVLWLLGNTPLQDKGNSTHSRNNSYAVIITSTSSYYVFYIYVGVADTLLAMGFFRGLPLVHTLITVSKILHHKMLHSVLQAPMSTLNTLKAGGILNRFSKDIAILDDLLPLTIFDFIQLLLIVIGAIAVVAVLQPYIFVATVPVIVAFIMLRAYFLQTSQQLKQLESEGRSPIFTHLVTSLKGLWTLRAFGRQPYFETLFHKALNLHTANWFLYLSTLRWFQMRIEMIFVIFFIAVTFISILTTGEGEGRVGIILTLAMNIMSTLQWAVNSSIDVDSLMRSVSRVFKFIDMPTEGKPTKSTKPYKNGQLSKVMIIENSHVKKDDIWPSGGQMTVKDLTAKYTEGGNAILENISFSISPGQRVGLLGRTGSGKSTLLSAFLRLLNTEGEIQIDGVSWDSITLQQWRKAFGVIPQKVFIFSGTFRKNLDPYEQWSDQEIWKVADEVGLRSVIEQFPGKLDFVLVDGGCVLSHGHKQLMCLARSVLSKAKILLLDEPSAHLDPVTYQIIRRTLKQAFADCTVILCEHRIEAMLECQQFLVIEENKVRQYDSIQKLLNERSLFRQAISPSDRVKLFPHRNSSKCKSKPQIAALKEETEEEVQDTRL

With `CC(=O)N1CCC(c2cc(C(=O)O)nc3c2c(C)nn3-c2ccccc2)CC1` [compound 138, 4-(1-acetylpiperidin-4-yl)-3-methyl-1-phenyl-1H-pyrazolo[3,4-b]pyridine-6-carboxylic acid], the “% Activation” value on ΔF508-CFTR [1] (setting [3]) is 12.11%; on ΔF508-CFTR [2] it was 133.3%. In addition, the EC50 at ΔF508-CFTR [1] (setting [4]) and on ΔF508-CFTR [2] was over 10000 nM in each case.
Consider `CS(=O)(=O)C1(COc2cc(C(=O)O)nc3c2c(C2CCC2)nn3-c2ccccc2)CCC1` [compound 632, 3-cyclobutyl-4-{[1-(methanesulfonyl)cyclobutyl]methoxy}-1-phenyl-1H-pyrazolo[3,4-b]pyridine-6-carboxylic acid], for which, on ΔF508-CFTR [1] (setting [5]), the “% Activation” value is 18.94% and the EC50 was over 10000 nM. Also, on ΔF508-CFTR [2], the “% Activation” value is listed as 129.55% and the half-maximal effective concentration (EC50) was over 10000 nM.
As for `Cc1cccc(-n2nc(C(C)C)c3c(N4CC5(CCCCO5)C4)cc(C(=O)O)nc32)c1` [compound 274, 1-(3-methylphenyl)-4-(5-oxa-2-azaspiro[3.5]nonan-2-yl)-3-(propan-2-yl)-1H-pyrazolo[3,4-b]pyridine-6-carboxylic acid], the “% Activation” value on ΔF508-CFTR [1] (setting [3]) is 114.64%; on ΔF508-CFTR [2], 301.45%. The values for the EC50 at ΔF508-CFTR [1] (setting [4]) and on ΔF508-CFTR [2] were 1080 nM and 902 nM, respectively.
Take `O=C(O)c1cc(N2CCC(CN3CCCOCC3)CC2)c2c(C3CCC3)nn(-c3ccccc3)c2n1` [compound 834, 3-cyclobutyl-4-{4-[(1,4-oxazepan-4-yl)methyl]piperidin-1-yl}-1-phenyl-1H-pyrazolo[3,4-b]pyridine-6-carboxylic acid]: at ΔF508-CFTR [1] (setting [5]), the “% Activation” value was found to be 227.9% and the half-maximal effective concentration (EC50) worked out at 241 nM. In addition, at ΔF508-CFTR [2], the “% Activation” value amounted to 403% and the EC50 is 114 nM.
Consider `CC(C)c1nn(-c2cc(F)cc(F)c2)c2nc(C(=O)O)cc(-c3ccc(N(C)C4CCOCC4)cc3)c12` [compound 245, 1-(3,5-difluorophenyl)-4-{4-[methyl(oxan-4-yl)amino]phenyl}-3-(propan-2-yl)-1H-pyrazolo[3,4-b]pyridine-6-carboxylic acid], for which the figures for the “% Activation” value on ΔF508-CFTR [1] (setting [3]) and at ΔF508-CFTR [2] were 267.15% and 508.37%, respectively. In addition, the EC50 at ΔF508-CFTR [1] (setting [4]) is 777 nM; on ΔF508-CFTR [2], 627 nM.
For the compound `CC(C)c1nn(C2CCCCC2)c2nc(C(=O)O)cc(-c3cnc(N4CCCC(C#N)C4)nc3)c12` (centres unmarked) [compound 366, 4-[2-(3-cyanopiperidin-1-yl)pyrimidin-5-yl]-1-cyclohexyl-3-(propan-2-yl)-1H-pyrazolo[3,4-b]pyridine-6-carboxylic acid], the “% Activation” value at ΔF508-CFTR [1] (setting [3]) stood at 199.1%; at ΔF508-CFTR [2], 385.85%. Further, the EC50 at ΔF508-CFTR [1] (setting [4]) turned out to be 436 nM; on ΔF508-CFTR [2], 602 nM.
Turning to `COCC1CCN(c2cc(C(=O)O)nc3c2c(C(C)C)nn3-c2cc(C)nc(C)c2)CC1` [compound 677, 1-(2,6-dimethylpyridin-4-yl)-4-[4-(methoxymethyl)piperidin-1-yl]-3-(propan-2-yl)-1H-pyrazolo[3,4-b]pyridine-6-carboxylic acid], at ΔF508-CFTR [1] (setting [5]), the “% Activation” value is reported as 67.38% and the EC50 came to 1570 nM. In addition, on ΔF508-CFTR [2], the “% Activation” value is recorded as 260.45% and the EC50 amounted to 6550 nM.
In the case of `CC(C)c1nn(-c2ccc(F)cc2)c2nc(C(=O)O)cc(N3CCC4(CCO4)CC3)c12` [compound 398, 1-(4-fluorophenyl)-4-(1-oxa-7-azaspiro[3.5]nonan-7-yl)-3-(propan-2-yl)-1H-pyrazolo[3,4-b]pyridine-6-carboxylic acid], on ΔF508-CFTR [1] (setting [5]), the “% Activation” value is given as 96.49% and the EC50 came to 1290 nM. In addition, on ΔF508-CFTR [2], the “% Activation” value was determined as 275.7% and the 50% effective concentration (EC50) worked out at 737 nM.
Consider `COCC1CN(C2CCN(c3cc(C(=O)O)nc4c3c(C3CCC3)nn4-c3ccc(F)cc3)CC2)CCO1` (centres unmarked) [compound 853, 3-cyclobutyl-1-(4-fluorophenyl)-4-{4-[2-(methoxymethyl)morpholin-4-yl]piperidin-1-yl}-1H-pyrazolo[3,4-b]pyridine-6-carboxylic acid], for which, at ΔF508-CFTR [1] (setting [5]), the “% Activation” value came out at 290.9% and the EC50 was 261 nM. Also, on ΔF508-CFTR [2], the “% Activation” value came to 509.5% and the EC50 was found to be 177 nM.
On to `COc1cccc(-n2nc(C3CCC3)c3c(N4CCC(N5CCOCC5)CC4)cc(C(=O)O)nc32)c1` [compound 822, 3-cyclobutyl-1-(3-methoxyphenyl)-4-[4-(morpholin-4-yl)piperidin-1-yl]-1H-pyrazolo[3,4-b]pyridine-6-carboxylic acid], for which, on ΔF508-CFTR [1] (setting [5]), the “% Activation” value turned out to be 272.3% and the EC50 amounted to 301 nM. Moreover, at ΔF508-CFTR [2], the “% Activation” value is recorded as 472.75% and the EC50 turned out to be 1140 nM.
For the compound `CC(=O)N1CCC(Oc2cc(C(=O)O)nc3c2c(C2CCC2)nn3-c2ccccc2)CC1` [compound 612, 4-[(1-acetylpiperidin-4-yl)oxy]-3-cyclobutyl-1-phenyl-1H-pyrazolo[3,4-b]pyridine-6-carboxylic acid], on ΔF508-CFTR [1] (setting [5]), the “% Activation” value was found to be 109.5% and the EC50 was found to be 3330 nM. Besides, on ΔF508-CFTR [2], the “% Activation” value is on record as 266.9% and the EC50 came out at 1180 nM.
The like results for `O=C(O)c1cc(OCCN2CCNC2=O)c2c(C3CCC3)nn(-c3ccccc3)c2n1` [compound 640, 3-cyclobutyl-4-[2-(2-oxoimidazolidin-1-yl)ethoxy]-1-phenyl-1H-pyrazolo[3,4-b]pyridine-6-carboxylic acid] were, in that order, 13.97%, over 10000 nM, 137.45% and over 10000 nM.
Turning to `CC(C)N1CCC2CN(c3cc(C(=O)O)nc4c3c(C3CCC3)nn4-c3ccc(F)cc3)CCC21` (centres unmarked) [compound 900, 3-cyclobutyl-1-(4-fluorophenyl)-4-[1-(propan-2-yl)octahydro-5H-pyrrolo[3,2-c]pyridin-5-yl]-1H-pyrazolo[3,4-b]pyridine-6-carboxylic acid], at ΔF508-CFTR [1] (setting [5]), the “% Activation” value turned out to be 183.97% and the EC50 worked out at 433 nM. At ΔF508-CFTR [2], the “% Activation” value is reported as 389.73% and the EC50 was 216 nM.
In the case of `Cc1nn(-c2ccccc2)c2nc(C(=O)O)cc(OC[C@H](F)C3CCOCC3)c12` [compound 336, 4-[(2R)-2-fluoro-2-(oxan-4-yl)ethoxy]-3-methyl-1-phenyl-1H-pyrazolo[3,4-b]pyridine-6-carboxylic acid], the “% Activation” value on ΔF508-CFTR [1] (setting [3]) came to 118.2%; on ΔF508-CFTR [2], 297.8%. Also, the EC50 at ΔF508-CFTR [1] (setting [4]) is 1370 nM; at ΔF508-CFTR [2], 1320 nM.
Consider `Cc1ncn(C)c(=O)c1CCN1CCN(c2cc(C(=O)O)nc3c2c(C2CCC2)nn3-c2ccccc2)CC1` [compound 502, 3-cyclobutyl-4-{4-[2-(1,4-dimethyl-6-oxo-1,6-dihydropyrimidin-5-yl)ethyl]piperazin-1-yl}-1-phenyl-1H-pyrazolo[3,4-b]pyridine-6-carboxylic acid], for which, on ΔF508-CFTR [1] (setting [5]), the “% Activation” value is listed as 152% and the EC50 stood at 3340 nM. At ΔF508-CFTR [2], the “% Activation” value came out at 327% and the EC50 turned out to be 1350 nM.
For `Cc1nn(-c2ccc(F)cc2F)c2nc(C(=O)O)cc(-c3ccc(N4CCOCC4)cc3)c12` [compound 105, 1-(2,4-difluorophenyl)-3-methyl-4-[4-(morpholin-4-yl)phenyl]-1H-pyrazolo[3,4-b]pyridine-6-carboxylic acid], the “% Activation” value at ΔF508-CFTR [1] (setting [3]) is reported as 179.05%; on ΔF508-CFTR [2] it was 383.25%. Moreover, the figures for the EC50 at ΔF508-CFTR [1] (setting [4]) and at ΔF508-CFTR [2] were 949 nM and 879 nM, respectively.
With `CO[C@H]1CCCC[C@@H]1Oc1cc(C(=O)O)nc2c1c(C1CCC1)nn2-c1ccccc1` [compound 580, 3-cyclobutyl-4-{[(1S,2S)-2-methoxycyclohexyl]oxy}-1-phenyl-1H-pyrazolo[3,4-b]pyridine-6-carboxylic acid], at ΔF508-CFTR [1] (setting [5]), the “% Activation” value worked out at 88.82% and the EC50 came out at 333 nM. At ΔF508-CFTR [2], the “% Activation” value is on record as 288% and the EC50 is 312 nM.
In the case of `Cc1nn(C2CCCCC2)c2nc(C(=O)O)cc(-c3ccc(N(C)C)nc3)c12` [compound 99, 1-cyclohexyl-4-[6-(dimethylamino)pyridin-3-yl]-3-methyl-1H-pyrazolo[3,4-b]pyridine-6-carboxylic acid], the entries for the “% Activation” value on ΔF508-CFTR [1] (setting [3]) and on ΔF508-CFTR [2] were 80.69% and 247.8%, respectively. Besides, the EC50 on ΔF508-CFTR [1] (setting [4]) turned out to be 1530 nM; on ΔF508-CFTR [2] it was 1100 nM.
Turning to `O=C(O)c1cc(N2CC[C@@H](O)[C@H](F)C2)c2c(C3CCC3)nn(-c3ccccc3)c2n1` [compound 464, 3-cyclobutyl-4-[(3R,4R)-3-fluoro-4-hydroxypiperidin-1-yl]-1-phenyl-1H-pyrazolo[3,4-b]pyridine-6-carboxylic acid], the “% Activation” value is on record as 163.6% on ΔF508-CFTR [1] (setting [5]) and 328.25% on ΔF508-CFTR [2]. Besides, the EC50 at ΔF508-CFTR [1] (setting [5]) was 1140 nM; on ΔF508-CFTR [2], 408 nM.
In the case of `COCC1CCN(c2cc(C(=O)O)nc3c2c(C(C)C)nn3-c2cccc(N(C)C)c2)CC1` [compound 368, 1-[3-(dimethylamino)phenyl]-4-[4-(methoxymethyl)piperidin-1-yl]-3-(propan-2-yl)-1H-pyrazolo[3,4-b]pyridine-6-carboxylic acid], the “% Activation” value is recorded as 357.3% at ΔF508-CFTR [1] (setting [3]) and 515.5% on ΔF508-CFTR [2]. Besides, the EC50 on ΔF508-CFTR [1] (setting [4]) came to 521 nM; at ΔF508-CFTR [2], 290 nM.

In general, EC50 refers to the midpoint of the concentration-response curve.
